US7867948B2, “Use of guanidine compounds as physiological strengthening agents in the form of nutritional supplements, animal feed additives, in cosmetic preparations and as plant stimulants” (Alzchem Trostberg GmbH, priority 2004, dated 2011)

Legend:
[1] = tested on: rats; conditions: experiments of GB 1 468 998; cited from earlier work
[2] = after administration; Arzneimittelforschung 1979, 29 (9A) 1477-79; cited from earlier work
[3] = tested on: chickens raised for market; test: Feed for chickens raised for market (feed additive trial); format: in vivo; set-up: dose or concentration left out as unconfirmed; conditions: 0.2 wt.-% added to air-dried food
Experimental: 2. Animal Feed Additive • 2.1 A formulation consisting of 5,000 mg creatinol-O -phosphate and 5,000 mg inulin was added to a typical formula for feed pellets as a food supplement for horses. • 2.2 A formulation consisting of 7,000 mg creatinol sulfate, 750 mg carnitine tartrate, 100 mg sucrose stearate, 160 mg talc, and 1,090 mg fructose was added to the base mixture for making dog biscuits. • 2.3 As a master batch, the following formulation was added to a regular commercial canned cat food mixture: 3,000 mg creatinol sulfate, 3,000 mg creatine, 40 mg magnesium stearate, 25 mg carboxymethylcellulose and 135 mg lactose. • 2.4 Feed for chickens raised for market
In addition the feed consumption was about 2 to 3% less than in former feeding methods.

Compound | swimming activity increased [1] [%] | creatinine levels in the urine [2] | meat quality ([3]; 41 days feeding time) | increase in the final weight versus former feeding methods without addition of creatinol ([3]; after 41 days feeding time) [%]
CN(CCO)C(=N)N.NC(CC(=O)O)C(=O)O (stereo not shown) [creatinol aspartate] | 30 | – | – | –
CN(CCOP(=O)(O)O)C(=N)N [creatinol-O-phosphate] | – | increase | improved quality | 4
